The source of these data is patent EP1153612A1, “ANTICANCER AGENT POTENTIATORS” (Tsuruo, Takashi, priority 1999, dated 2000).

Molecules are shown by their SMILES.

The subject of one test is topoisomerase IIα. Nature of the test: Amount of expression of topoisomerase IIα in whole cell extract by western blotting. In kind it is cell-based, human. Conditions: glucose starvation condition; 2.5, 5, and 10 µM; FIG. 17(b). An excerpt:
Topoisomerase II inhibiting anticancer drug stabilizes a complex (cleavable complex) consisting of the DNA and topoisomerase IIα occurring in a catalytic reaction process of topoisomerase IIα to cause DNA damage. Therefore, cell-killing effect of the topoisomerase II-inhibiting anticancer drug depends on the amount of intracellular expression of topoisomerase IIα essential for formation of the cleavable complex. Then, the amount of expression of topoisomerase IIα in the cultured cancer cell under the glucose starvation and hypoxia environment that are found in the solid cancer and the effect of the proteasome inhibiting agent to the amount of expression were examined.
The culture condition of cells is same as that described in Example 1 including the M phase synchronous culture method and culture under the glucose starvation condition. Culture under hypoxia condition, that is found in the solid cancer, similar to glucose starvation was carried out using the culture medium (that prepared by adding 5% FBS to RPMI1640 culture medium) under the ordinary condition in a Gaspack 100 anaerobic system (Becton Dickinson made). Culture under the glucose starvation condition and hypoxia condition was carried out for 14 hours .
With the purpose to prepare a whole cell extract solution, cells culture under the above described condition were washed with an ice-cooled PBS twice and then, cells were removed from the culture dish by using a cell scraper (Sumitomo Bakelite made) for collection. Cells collected were precipitated by centrifugation and then, dissolved in an SDS sample buffer to collect as the extract solution from all cells. For reference, the composition of the SDS sample buffer was 10% v/v, glycerol, 5% 2-mercaptoethanol, 2% SDS (sodium lauryl sulfate), and 62.5 mM tris-hydrochloric acid (pH 6.8).
The amount of topoisomerase IIα in the extract solution from all cells was measured by the western blotting method. The extract solution from all cells containing a total protein quantity of 30 µg was put on an SDS polyacrylamide gel (4-20 Multigel: Daiichi Pure Chemicals K.K. made) and subjected to electrophoresis in an electrophoresis buffer (25 mM tris, 192 mM glycine, and 0.1% SDS) in a 40 mA constant current for 1 hour. Subsequently, blotting was carried out in 4°C blotting buffer (25 mM tris, 192 mM glycine, and 20% methanol) in a 50 V constant voltage for 12 hours to transfer a protein separated in the SDS polyacrylamide gel to a nitrocellulose membrane. This nitrocellulose membrane was soaked in a blocking buffer (0.1% Tween 20, 4% skim milk-added PBS) for 1 hour to carry out blocking. The nitrocellulose membrane blocked was soaked in a solution, that was prepared by adding anti-topoisomerase IIα antibody (Cambridge Research Biochemicals Corp. made) of the final concentration 1 µg/ml as the primary antibody to the blocking buffer solution, for 1 hour. The nitrocellulose membrane was washed with the blocking buffer three times (5 minutes once), and then, soaked in the solution, in which a 1/1000 volume of an antimouse antibody (Amersham Pharmacia Biotech made) labeled with horse radish peroxidase as a secondary antibody had been added to the blocking buffer, for 1 hour. The nitrocellulose membrane was washed with the blocking buffer three times (5 minutes once), and then, washed with the PBS, to which 0.1% Tween 20 was added, three times (5 minutes once). The nitrocellulose membrane after completion of antibody reaction and washing was treated with the ECL reagent (Amersham Pharmacia Biotech made) after a handling manual and a topoisomerase IIα-specific signal was detected on an X-OMAT™AR film (Kodakmade). For reference, steps after blotting was carried out in a room temperature. […]
The cell culture condition for both M phase-synchronized culture method and culture under the glucose starvation condition was as described in Example 1. […]

Another test has as its system topoisomerase I. Kind of test: Amount of expression of topoisomerase I in whole cell extract by western blotting. Format: cell-based, human. Conditions: ordinary and glucose starvation condition; 2.5, 5, and 10 µM; FIG. 17(a). Here is the method:
The cell culture condition for both M phase-synchronized culture method and culture under the glucose starvation condition was as described in Example 1. M phase-synchronized cells were cultured in the culture medium, to which lactacystin of the final concentration 10 µM was added, or the culture medium, to which this was not added, as the proteasome inhibiting agent under the ordinary condition and the glucose starvation condition, respectively, for 13 hours. […] In order to examine sensitivity of cells against the topoisomerase I inhibiting agent, camptothecin (Yakult made), the drug was added to the culture medium to continue further culturing for 4 hours. Sensitivity of cells was measured by applying the colony formation method described in Example 1. On the other hand, the amount of expression of topoisomerase I that is the target molecule of camptothecin was measured by preparing the whole cell extract solution as described in Example 2 followed by the western blotting method. For reference, in measuring the amount of expression of topoisomerase I, regarding the proteasome inhibiting agents, clasto-lactacystin β lactone (Boston Biochem made), which is an activated form of lactacystin, was used in the final concentration of 2.5, 5, and 10 µM. Meanwhile, as the antibody against human topoisomerase I, a mouse monoclonal antibody established by Tsuruo et al. was used.
(A western blot detects proteins with antibodies after separation by electrophoresis.)

Test [1] relates to human colon adenocarcinoma cell HT-29. Nature of the test: Sensitivity of cells to anticancer drug by colony formation method (M phase-synchronized cells, with or without proteasome inhibiting agent). Conditions: etoposide 5, 10, and 15 µg/ml, 1 hour, FIG. 1. Format: cell-based. Here is the method: In the glucose starvation environment found in the solid cancer, the effect of combined use of the proteasome inhibitor in a human colon adenocarcinoma cell HT-29 with the anticancer drug targeting topoisomerase II was tested.
Concerning culture media, for a culture condition in a normal state, RPMI 1640 medium (Nissui Pharmaceutical Co.-made) to which a 5% FBS (fetal bovine serum) was added and for the culture condition in the glucose starvation state symbolically found in the solid cancer, RPMI 1640 medium (Lifetech Oriental-made), lacking glucose, in which the 5% FBS was added were used, respectively. Culture was carried out using a CO2 incubator (Tabai Espec-made) under conditions of 5% CO2/95% air and humidity 100%.
In order to test sensitivity to the anticancer drug, the cell cycle synchronization culture methodwas employed. Nocodazol (Sigma made) was used to synchronize the cell cycle, cells in a logarithmic proliferation phase were treated with 40 ng/ml Nocodazol for 9 hours, and cells accumulated in cell division phase (Mpahse) were collected by gentle pipetting. M phase-synchronized cells collected through these steps were washed with PBS (phosphate buffered saline) followed by inoculation of 1×10^5 cells per well of 12 well-culture plate.
M phase-synchronized cells were cultured under the normal condition and the glucose starvation condition to conduct treatments with the proteasome inhibiting agent and the anticancer drug as follows. For cells under the glucose starvation condition, the culture medium, to which the proteasome inhibiting agent and the protease inhibiting agent not inhibiting proteasome were added as the control group, and the culture medium, to which no inhibiting agent has been added, was used. For cells under the normal condition, the culture medium, to which each inhibiting agent was not added, was used. After inoculation of cells, culture was carried out for 13 hours in each culture medium. […]
Sensitivity of cells to the anticancer drug was measured using the colony formation method. As described above, cells treated with the proteasome inhibiting agent and the anticancer drug were washed with PBS followed by soaking in trypsin (Lifetech Oriental made) solution and removed from a culture dish to suspend in an ordinary culture medium. These cells were inoculated again in 500 to 5000 cells for a 10 cm culture dish and cultured for 10 to 12 days to form a colony. The colony formed was fixed by 10% formaldehyde solution and stainedwith 0.01% crystal violet (Wako Pure Chemicals made) solution. Number of colony was counted and a Cell survival rate was calculated assuming that the number of colonies untreated with the anticancer drug is 1.
For reference, the proteasome inhibiting agent and the protease inhibiting agent not inhibiting proteasome used as described above were as follows. • (1) Proteasome inhibiting agent • . […] MG115 (carbobenzoxy-L-Leucyl-L-Leucyl-L-Norvalinal): final concentration 2.5 µM (Peptide Institute Inc. made) • . MG132 (carbobenzoxy-L-Leucyl-L-Leucyl-Leucinal) : final concentration 2.5 µM (Peptide Institute Inc. made) • . Lactacystin, final concentration 10 µM (Kindly supplied from The Kitasato Institute made) • (2) Protease inhibiting agent not inhibiting proteasome • . E64, final concentration 25 µM (Peptide Institute Inc. made) • . ZLLal (carbobenzoxy-L-Leucyl-L-Leucinal): final concentration 25 µM (Peptide Institute Inc. made)
The cell culture condition for both M phase-synchronized culture method and culture under the glucose starvation condition was as described in Example 1. M phase-synchronized cells were cultured in the culture medium, to which lactacystin of the final concentration 10 µM was added, or the culture medium, to which this was not added, as the proteasome inhibiting agent under the ordinary condition and the glucose starvation condition, respectively, for 13 hours. […]

For test [2], the system named is human colon cancer cell HT29. Kind of test: Anticancer therapy in human cancer cell-transplanted nude mouse model (size of tumor lump). Format: in vivo, nude mouse BALB/cAnNCrj-nu/nu. Conditions: Example 5; intraperitoneally three times every 4 days; etoposide 33 mg/kg, lactacystin 40 mg/kg; in combined use lactacystin 5 hours before etoposide; FIG. 11. An excerpt:
A human colon cancer cell HT29 was transplanted subcutaneously to a nude mouse to examine a therapeutic effect of combined use of lactacystin, the proteasome inhibiting agent, with etoposide, the anticancer drug targeting topoisomerase II.
As an experimental animal, the nude mouse BALB/cAnNCrj-nu/nu of 8-week old female (Charles River Laboratories product) was used. In order to form a tumor lump in the nude mouse, 1×10^7 HT29 cells was subcutaneously transplanted. After 8 to 10 days of transplanting, the tumor lump of HT29 cells grew to […] and at this point, the therapy was started. […]
The therapy was conducted by dividing the HT29 tumor-transplanted mice into 4 groups to assign 4 animals to 1 group as follows by administering intraperitoneally three times every 4 days: (1) control group untreated with saline, (2) etoposide 33 mg/kg, (3) lactacystin 40 mg/kg, (4) lactacystin 40 mg/kg and etoposide 33 mg/kg. […] Since start of the therapy, a size of the tumor lump was measured to measure effect of the therapy by administration of drugs once every 4 days. […]
The effect of therapy by simultaneous administration of the proteasome inhibiting agent, lactacystin, and the topoisomerase II-targeting anticancer, doxorubicin was examined. […] After start of treatment, once every 4 to 5 days, the size of the tumor lump was measured to measure the effect of treatment by drug administration.

`CC(C)[C@H](O)[C@@]12NC(=O)[C@H](C)[C@@H]1OC2=O` [activated type of lactacystin, clasto-lactacystin β lactone]: the “amount of expression of topoisomerase IIα” value with topoisomerase IIα is given as “the lowering of expression is perfectly inhibited”. Besides, the “amount of expression of topoisomerase I” value with topoisomerase I was “does not change”.
On to `COc1cc([C@@H]2c3cc4c(cc3[C@@H](O[C@@H]3O[C@@H]5CO[C@@H](C)O[C@H]5[C@H](O)[C@H]3O)[C@H]3COC(=O)[C@H]23)OCO4)cc(OC)c1O` [etoposide], for which the “Cell survival (colony formation) with etoposide” value in test [1] (glucose starvation condition) is “cells showed resistance against etoposide to survive”; in test [1] (ordinary culture condition) it was “almost all HT29 cells died”. Further, the “suppression of tumor proliferation (size of the tumor lump)” value in test [2] is reported as “less suppression of tumor proliferation”.
